According to patent EP2226070B1, “Process for determining the optimal dosage of antivitamins K in anticoagulant therapy” (Puech, Roger, priority 2009, dated 2010):

System: INR
Test: Correlation of optimal dosages between different vitamin K antagonists, established with the dosage determination process
Type: in vivo, patient
Settings: for dose correspondant à 1/4 de comprimé de "Préviscan" (corrélation proportionnelle entre différents antivitamines K): dose equivalent to 1/4 tablet of Préviscan for the optimal anticoagulant dosage
Excerpt: Ce procédé de détermination est original en ce qu'il comprend les étapes suivantes consistant : • (a) à enregistrer la valeur IO de l'INR optimal cible, • (b) à enregistrer les valeurs d'INR mesurées dans une période donnée T1 à partir d'un surdosage Dmaxi dudit antivitamine K fixé préalablement par le prescripteur au-dessus du dosage préconisé, afin de déterminer une première pente P1 des valeurs d'INR en fonction du temps T1, • (c) à partir de la pente P1, à extrapoler et à enregistrer une valeur Imaxi d'INR théoriquement atteinte à partir du jour où la valeur IO de l'INR cible est atteinte et au bout d'une période déterminée T0, • (d) à enregistrer les valeurs d'INR mesurées dans une période donnée T2 à partir d'un sous-dosage Dmini dudit antivitamine K fixé par le prescripteur au-dessous du dosage préconisé, afin de déterminer une deuxième pente P2 des valeurs d'INR en fonction du temps T2, • (e) à partir de la pente P2, à extrapoler et à enregistrer une valeur Imini d'INR théoriquement atteinte à partir du jour où la valeur IO de l'INR cible est atteinte et au bout de la même période déterminée T0, • (f) à calculer à partir de la différence entre les valeurs Imaxi et Imini d'INR théoriquement calculées, un facteur de correction de posologie dudit antivitamine K exprimé selon la formule suivante : F = (Imaxi -Imini)/(Dmaxi -Dmini) [formula] • (g) afin de déterminer à partir de la différence entre les valeurs I0 de l'INR cible optimal et de l'Imini de l'INR minimum calculé, et dudit facteur F de correction de posologie dudit antivitamine K, la posologie adéquate D0 permettant d'atteindre et de maintenir constante la valeur Io de l'INR cible fixée préalablement selon la relation suivante : D0 = Dmini + (I0 -Imini)/(F). [formula]
C'est aussi à partir de son procédé de détermination de dosage optimal d'un antivitamine K, que le demandeur a pu établir également une corrélation proportionnelle entre différents antivitamines K (1/4 de comprimé de "Préviscan" correspond à 0,82 mg de "Sintrom", à 2 mg de "Coumadine" ou à 0,82 mg de "Apegmone") de sorte qu'à partir d'un dosage optimal d'un antivitamine K prescrit, il peut calculer le dosage optimal d'un autre antivitamine K en remplacement du premier.

Row | Compound | dose correspondant à 1/4 de comprimé de "Préviscan" (corrélation proportionnelle entre différents antivitamines K) | dose de référence de la corrélation proportionnelle entre différents antivitamines K (reference dose of the proportional correlation)
1 | O=c1oc2ccccc2c(O)c1C(CC(O)c1ccc(Cl)cc1)c1ccc(Cl)s1 (stereo not shown) [Apegmone] | 0,82 mg | –
2 | CC(=O)CC(c1ccccc1)c1c(O)c2ccccc2oc1=O (stereo not shown) [Coumadine] | 2 mg | –
3 | O=C1c2ccccc2C(=O)C1c1ccc(F)cc1 [Préviscan] | – | 1/4
4 | CC(=O)CC(c1ccc([N+](=O)[O-])cc1)c1c(O)c2ccccc2oc1=O (stereo not shown) [Sintrom] | 0,82 mg | –
